Measurements as given in US20180084782A1, “METHOD OF CONTROL OF STINKBUGS” (Syngenta Participations AG, priority 2015, published 2018).
Like-named read-outs stand apart in the source and are kept apart here.

Test system: Euschistus heros (neotropical brown stink bug)
Assay: Insecticidal activity against Euschistus heros: contact/feeding activity on sprayed soybean plants
Format: in vivo
Details: 120 h
Protocol: Insecticidal activity against Euschistus heros (neotropical brown stink bug): contact/feeding activity of compounds 1 and 3 according to the invention and 2 and 4 as comparison:
Two week old soybean plants were sprayed in a turn table spray chamber with the diluted spray solutions. After drying, two soybean seeds were added and plants were infested with ten N-2 nymphs of the neotropical brown stink bug Euschistus heros in plastic test boxes. Boxes were incubated in a climate chamber at 25° C. and 60% relative humidity. Evaluation is done 5 days after infestation on mortality and growth effect.

[1] = 0.2 ppm spray, N-2 nymphs on soybean plants, evaluation 5 days after infestation, read-out: Mortality (%)
[2] = 0.8 ppm spray, N-2 nymphs on soybean plants, evaluation 5 days after infestation, read-out: Mortality (%)
[3] = 3 ppm spray, N-2 nymphs on soybean plants, evaluation 5 days after infestation, read-out: Mortality (%)

Structure (SMILES)	mortality at 0.2 ppm [1] [%]	mortality at 0.8 ppm [2] [%]	mortality at 3 ppm [3] [%]	mortality at 0.0125 ppm [%]	mortality at 0.05 ppm [%]	mortality at 0.2 ppm [%]	mortality at 0.8 ppm [%]	mortality at 3 ppm [%]	mortality at 0.0125 ppm (0.0125 ppm spray, N-2 nymphs on soybean plants, evaluation 5 days after infestation, read-out: Mortality (%)) [%]	mortality at 0.05 ppm (0.05 ppm spray, N-2 nymphs on soybean plants, evaluation 5 days after infestation, read-out: Mortality (%)) [%]
Cn1nc(C(F)(F)C(F)(F)F)c(C(F)(F)F)c1-n1cc(-c2ccc(Cl)c(C(=O)NC3(C#N)CC3)c2)nn1 [Compound 4, reference compound]	0	20	95	–	–	–	–	–	–	–
Cn1nc(C(F)(F)C(F)(F)F)c(C(F)(F)F)c1-n1cc(-c2ccc(Cl)c(C(=O)NC3CC3)c2)cn1 [Compound 1]	–	–	–	35	50	95	100	100	–	–
Cn1nc(C(F)(F)C(F)(F)F)c(C(F)(F)F)c1-n1cc(-c2ccc(Cl)c(C(=O)NC3CC3)c2)nn1 [Compound 2, reference compound]	20	35	100	–	–	–	–	–	0	10
Cn1nc(C(F)(F)C(F)(F)F)c(C(F)(F)F)c1-n1cc(-c2ccc(Cl)c(C(=O)NC3(C#N)CC3)c2)cn1 [Compound 3]	–	–	–	15	35	95	95	100	–	–
